Source: publication PMC12052975, “A key residue of the extracellular gate provides quality control contributing to ABCG substrate specificity” (Nature Communications, 2025)
Substitutions are numbered along the chain they refer to.

What was measured:
Format in all cases: cell-based
ABCG36/PDR8/PEN3 [1] = target: T1, ABCG36/PDR8/PEN3 (Arabidopsis thaliana, UniProt Q9XIE2); experiment: radiolabel export from transfected N. benthamiana protoplasts; also stimulates ATPase in microsomes; specific binding to Arabidopsis microsomes; conditions: labelled compound; export 25 °C, 15 min; ATPase with 50 μM compound at pH 9.0; binding at 10 nM
T1 construct: full length, 35S:ABCG36-GFP (GFP tag kept), Agrobacterium-transfected Nicotiana benthamiana mesophyll protoplasts or microsomes; full-size PDR-type ABC transporter
T1 sequence (Q9XIE2 1-1469): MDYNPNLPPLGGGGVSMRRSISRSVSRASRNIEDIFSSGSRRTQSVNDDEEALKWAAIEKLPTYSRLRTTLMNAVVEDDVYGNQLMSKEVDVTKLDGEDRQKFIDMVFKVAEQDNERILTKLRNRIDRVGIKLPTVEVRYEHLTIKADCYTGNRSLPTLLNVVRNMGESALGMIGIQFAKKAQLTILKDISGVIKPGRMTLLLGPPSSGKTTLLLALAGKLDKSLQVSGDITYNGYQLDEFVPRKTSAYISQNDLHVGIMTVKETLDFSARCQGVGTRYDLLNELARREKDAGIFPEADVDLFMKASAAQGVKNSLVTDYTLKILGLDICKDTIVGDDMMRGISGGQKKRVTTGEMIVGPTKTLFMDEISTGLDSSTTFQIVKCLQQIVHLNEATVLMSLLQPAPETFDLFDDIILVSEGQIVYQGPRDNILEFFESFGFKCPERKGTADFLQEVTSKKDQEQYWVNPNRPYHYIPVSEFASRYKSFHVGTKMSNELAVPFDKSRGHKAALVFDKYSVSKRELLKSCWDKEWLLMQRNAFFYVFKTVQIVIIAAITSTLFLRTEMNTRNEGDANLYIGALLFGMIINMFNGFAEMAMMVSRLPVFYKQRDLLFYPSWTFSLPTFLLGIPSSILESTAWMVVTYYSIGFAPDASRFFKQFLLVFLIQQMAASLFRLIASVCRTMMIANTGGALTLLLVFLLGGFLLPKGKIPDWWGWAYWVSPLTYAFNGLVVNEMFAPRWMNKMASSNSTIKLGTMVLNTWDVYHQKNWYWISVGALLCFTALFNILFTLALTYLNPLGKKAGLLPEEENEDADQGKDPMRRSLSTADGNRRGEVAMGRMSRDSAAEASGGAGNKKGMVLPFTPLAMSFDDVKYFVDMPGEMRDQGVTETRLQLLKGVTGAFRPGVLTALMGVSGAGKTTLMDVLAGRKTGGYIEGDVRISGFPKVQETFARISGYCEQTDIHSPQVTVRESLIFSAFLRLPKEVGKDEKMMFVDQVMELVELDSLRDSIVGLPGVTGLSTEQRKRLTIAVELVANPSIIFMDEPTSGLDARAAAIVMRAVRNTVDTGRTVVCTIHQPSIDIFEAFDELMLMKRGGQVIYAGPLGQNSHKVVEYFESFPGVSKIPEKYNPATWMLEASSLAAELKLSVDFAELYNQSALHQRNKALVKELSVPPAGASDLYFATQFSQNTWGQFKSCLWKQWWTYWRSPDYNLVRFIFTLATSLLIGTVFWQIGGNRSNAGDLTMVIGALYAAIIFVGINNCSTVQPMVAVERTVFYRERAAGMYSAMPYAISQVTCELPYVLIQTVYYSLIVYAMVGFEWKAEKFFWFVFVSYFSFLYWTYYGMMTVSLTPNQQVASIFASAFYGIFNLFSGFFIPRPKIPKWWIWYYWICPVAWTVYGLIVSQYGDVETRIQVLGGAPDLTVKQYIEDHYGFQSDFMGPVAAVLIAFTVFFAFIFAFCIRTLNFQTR

ABCG36/PDR8/PEN3 [2] = target: T2, ABCG36/PDR8/PEN3 (Arabidopsis thaliana, UniProt Q9XIE2, L704S); experiment: radiolabel export from transfected N. benthamiana protoplasts; conditions: labelled compound; export 25 °C, 15 min
T2 construct: full length, 35S:ABCG36-GFP (GFP tag kept), Agrobacterium-transfected Nicotiana benthamiana mesophyll protoplasts or microsomes; full-size PDR-type ABC transporter
T2 sequence (Q9XIE2 1-1469 L704S): T1 sequence (Q9XIE2 1-1469) with L704S

ABCG36/PDR8/PEN3 [3] = target: T3, ABCG36/PDR8/PEN3 (Arabidopsis thaliana, UniProt Q9XIE2, L704F); experiment: radiolabel export from transfected N. benthamiana protoplasts; also stimulates ATPase in microsomes; conditions: labelled compound; export 25 °C, 15 min; ATPase with 50 μM compound at pH 9.0
T3 construct: full length, 35S:ABCG36-GFP (GFP tag kept), Agrobacterium-transfected Nicotiana benthamiana mesophyll protoplasts or microsomes; full-size PDR-type ABC transporter
T3 sequence (Q9XIE2 1-1469 L704F): T1 sequence (Q9XIE2 1-1469) with L704F

Row | Compound | radiolabel export from transfected N. benthamiana protoplasts; also stimulates A (ABCG36/PDR8/PEN3 [1]) | radiolabel export from transfected N. benthamiana protoplasts (ABCG36/PDR8/PEN3 [2]) | radiolabel export from transfected N. benthamiana protoplasts; also stimulates A (ABCG36/PDR8/PEN3 [3])
1 | c1ccc2c(-c3nccs3)c[nH]c2c1 [CLX, 3-thiazol-2-yl-indole] | stimulated by its substrates (IBA and CLX) but not by non-transported indolic compounds | – | –
2 | O=C(O)Cc1c[nH]c2ccccc12 [IAA] | – | gain-of-IAA transport for polar but uncharged serine | –
3 | O=C(O)CCCc1c[nH]c2ccccc12 [IBA, indole-3-butyric acid] | stimulated by its substrates (IBA and CLX) but not by non-transported indolic compounds | – | the L704F (abcg36-5) variant had no effect on ABCG36-mediated IBA export
